Measured values published in patent publication US9776972B2, “Pyrazole derivatives as arginine methyltransferase inhibitors and uses thereof” (priority 2013, dated 2017).

Target: T1, Human CARM1 (PRMT4) (Homo sapiens, UniProt Q86X55)
T1 construct: Flag-CARM1-His; made in house; host or cells: HEK 293F cells (BacMam baculovirus)
T1 sequence (Q86X55 1-585 isoform Q86X55-1): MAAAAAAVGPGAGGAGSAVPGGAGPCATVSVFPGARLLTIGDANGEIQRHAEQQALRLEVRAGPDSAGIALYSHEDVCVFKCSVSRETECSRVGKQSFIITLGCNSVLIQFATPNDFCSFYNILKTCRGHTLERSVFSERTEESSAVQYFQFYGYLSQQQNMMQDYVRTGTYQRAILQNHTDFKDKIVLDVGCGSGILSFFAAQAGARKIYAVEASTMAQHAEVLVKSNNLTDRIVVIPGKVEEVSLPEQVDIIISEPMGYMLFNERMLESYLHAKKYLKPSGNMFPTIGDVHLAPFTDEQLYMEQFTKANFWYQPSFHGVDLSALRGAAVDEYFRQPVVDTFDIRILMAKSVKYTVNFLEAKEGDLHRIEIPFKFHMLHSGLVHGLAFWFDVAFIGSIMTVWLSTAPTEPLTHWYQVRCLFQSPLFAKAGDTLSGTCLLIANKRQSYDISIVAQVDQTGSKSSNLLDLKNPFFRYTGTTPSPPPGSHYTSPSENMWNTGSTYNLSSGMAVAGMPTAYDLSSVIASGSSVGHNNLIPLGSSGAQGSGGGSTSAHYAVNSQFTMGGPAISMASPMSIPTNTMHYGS
Assay: CARM1 Biochemical Assay (3H-SAM Flashplate, peptide substrate)
Conditions: single experiment or average of multiple experiments
Text: S-adenosylmethionine (SAM), S-adenosylhomocysteine (SAH), bicine, Tween20, dimethylsulfoxide (DMSO), bovine skin gelatin (BSG), sodium butyrate and Tris(2-carboxyethyl)phosphine hydrochloride solution (TCEP) were purchased from Sigma-Aldrich at the highest level of purity possible. ^3H-SAM was purchase from American Radiolabeled Chemicals with a specific activity of 80 Ci/mmol. 384-well streptavidin Flashplates were purchased from PerkinElmer.
Peptide representative of human histone H3 residues 16-30 was synthesized with an N-terminal linker-affinity tag motif and a C-terminal amide cap by 21st Century Biochemicals. […] The sequence was Biot-Ahx-[…]-amide and contained a monomethylated arginine at position 26 (SEQ ID NO.: 14).
Recombinant baculovirus were generated according to Bac-to-Bac kit instructions (Life Technologies). […] Infections were carried out at 37° C. for 48 hours, harvested by centrifugation, and stored at −80° C. for purification.
Column was washed with 500 mM NaCl in buffer A and Flag-CARM1-His was eluted with 200 ug/ml FLAG peptide in buffer A. Pooled fractions were dialyzed in 20 mM Tris, 150 mM NaCl, 5% glycerol and 1 mM DTT, pH 7.8.
General Procedure for CARM1 Enzyme Assays on Peptide Substrates.
The assays were all performed in a buffer consisting of 20 mM Bicine (pH=7.6), 1 mM TCEP, 0.005% BSG, and 0.002% Tween 20, prepared on the day of use. […] DMSO (1 ul) was added to Columns 11, 12, 23, 24, rows A-H for the maximum signal control and 1 ul of SAH, a known product and inhibitor of CARM1, was added to columns 11, 12, 23, 24, rows I-P for the minimum signal control. A cocktail (40 ul) containing the CARM1 enzyme was added by Multidrop Combi (Thermo-Fisher). The compounds were allowed to incubate with CARM1 for 30 min at room temperature, then a cocktail (10 ul) containing ^3H-SAM and peptide was added to initiate the reaction (final volume=51 ul). […] The assays were stopped by the addition of non-radiolabeled SAM (10 ul) to a final concentration of 300 uM, which dilutes the ^3H-SAM to a level where its incorporation into the peptide substrate is no longer detectable. 50 ul of the reaction in the 384-well polypropylene plate was then transferred to a 384-well Flashplate and the biotinylated peptides were allowed to bind to the streptavidin surface for at least 1 hour before being washed once with 0.1% Tween20 in a Biotek ELx405 plate washer. The plates were then read in a PerkinElmer TopCount plate reader to measure the quantity of ^3H-labeled peptide bound to the Flashplate surface, measured as disintegrations per minute (dpm) or alternatively, referred to as counts per minute (cpm).
Where dpm=disintegrations per minute, cmpd=signal in assay well, and min and max are the respective minimum and maximum signal controls.
Where top and bottom are the normally allowed to float, but may be fixed at 100 or 0 respectively in a 3-parameter fit. The Hill Coefficient normally allowed to float but may also be fixed at 1 in a 3-parameter fit. Y is the % inhibition and X is the compound concentration.

| Compound | IC50 |
| --- | --- |
| CNCCN(C)Cc1cnn(C(C)C)c1-c1ccc(F)cc1 [Compound 16] | 6.74 µM |
| CNCCN(C)Cc1cn[nH]c1-c1ccc(C#N)cc1 [Compound 17] | 1.56 µM |
| CN(CCN)Cc1n[nH]cc1-c1ccc(C2CCOCC2)cc1 [Compound 145] | 4.92 µM |
| COc1ccc(-c2n[nH]cc2CN(C)CCN)c(Cl)c1 [Compound 146] | 5.77 µM |
| CN(CCN)Cc1c[nH]nc1-c1cccc(N(C)C)c1 [Compound 149] | 1.3 µM |
| CCOC(=O)c1cccc(-c2n[nH]cc2CN(C)CCN)c1 [Compound 150] | 2.42 µM |
| COc1cc(F)ccc1-c1n[nH]cc1CN(C)CCN [Compound 151] | 8.32 µM |
| Cc1cc(F)ccc1-c1n[nH]cc1CN(C)CCN [Compound 152] | 6.87 µM |
| CN(CCN)Cc1c[nH]nc1-c1cc(Cl)ccc1F [Compound 156] | 6.74 µM |
| Cc1ccccc1-c1n[nH]cc1CN(C)CCN [Compound 161] | 6.13 µM |

Next, values leading:

| IC50 | Compound |
| --- | --- |
| 2.24 µM | CNCCN(C)Cc1cn(C2CC2)nc1-c1ccc(F)cc1 [Compound 13] |
| 0.97 µM | CNCCN(C)Cc1cnn(C2CC2)c1-c1ccc(F)cc1 [Compound 14] |
| 3.4 µM | CNCCN(C)Cc1cn(C(C)C)nc1-c1ccc(F)cc1 [Compound 15] |
| 0.656 µM | CNCCN(C)Cc1cn[nH]c1-c1cc(F)cc(F)c1 [Compound 18] |
| 2.06 µM | COc1ccc(-c2n[nH]cc2CN(C)CCN)cc1 [Compound 153] |
| 0.612 µM | Cc1ccc(-c2n[nH]cc2CN(C)CCN)cc1 [Compound 162] |
| 0.2 µM | CCn1cc(CN(C)CCNC)c(-c2ccc(OC(C)C)cc2)n1 [Compound 213] |
| 0.168 µM | CNCCN(C)Cc1cn(C2CCCC2)nc1-c1ccc(OC(C)C)cc1 [Compound 214] |
| 0.299 µM | CNCCN(C)Cc1cn(C2CCOC2)nc1-c1ccc(OC(C)C)cc1 (centres unmarked) [Compound 215] |
| 0.285 µM | CNCCN(C)Cc1cnn(C2CCOC2)c1-c1ccc(OC(C)C)cc1 (centres unmarked) [Compound 216] |
| 0.62 µM | CNCCN(C)Cc1cn(Cc2ccccc2)nc1-c1ccc(OC(C)C)cc1 [Compound 217] |
| 0.414 µM | C=CCn1cc(CN(C)CCNC)c(-c2ccc(OC(C)C)cc2)n1 [Compound 218] |
| 0.142 µM | C=CCn1ncc(CN(C)CCNC)c1-c1ccc(OC(C)C)cc1 [Compound 219] |
